# Values of other authors as cited in US20030013675A1 (Boehringer Ingelheim Pharma KG, priority 2001, published 2003).
# Key:
# [1] = system: Human Neutrophils
# [2] = system: adherent human monocyte; conditions: in particular human peripheral blood monocyte
# [3] = system: antigen-challenged pig; conditions: in vivo
# [4] = system: guinea pig eosinophils
# [5] = inhaled at several times the recommended dose
compound,measurement,setting,value
CCNC(=O)[C@H]1OC(n2cnc3c(N)nc(NCCc4ccc(CCC(=O)O)cc4)nc32)[C@H](O)[C@@H]1O (stereo partly shown) [CGS 21680],neutrophil superoxidase release,[1],inhibits
same,endotoxin-stimulated adherent human monocyte TNFα production,[2],decreases
CCCn1c(=O)c2c(C)nc(CC)n2c2nc(OC)ccc21 [Example D-22888],antiallergic effect,[3],strong antiallergic affect
same,rhinorrhea in the antigen-challenged pig,[3],inhibit rhinorrhea
CCNC(=O)[C@@H]1O[C@H](n2cnc3c(N)ncnc32)[C@@H](O)[C@H]1O [NECA],zymosan-stimulated oxidative activity in guinea pig eosinophils,[4],inhibits
CC[N+]1(C)[C@@H]2CC(OC(=O)[C@H](CO)c3ccccc3)C[C@H]1[C@@H]1O[C@@H]12 (stereo partly shown) [oxitropium],"change in heart rate, blood pressure, bladder function, intraocular pressure, or pupillary diameter",[5],little or no change
"C[N+]1(C)[C@@H]2C[C@@H](OC(=O)C(O)(c3cccs3)c3cccs3)C[C@H]1[C@@H]1O[C@@H]12 [tiotropium, (1α, 2β, 4β, 5α, 7β)-7-[(hydroxydi-2-thienylacetyl)oxy]-9,9-dimethyl-3-oxa-9-azoniatricyclo[3.3.1.0^2,4]nonane bromide]","change in heart rate, blood pressure, bladder function, intraocular pressure, or pupillary diameter",[5],little or no change
